These results are taken from patent US5968751A, “Method for detecting the presence of protein C antibody in a fluid sample” (The Scripps Research Institute, priority 1997, dated 1999).

The target in assay [1] is T1, APC (Homo sapiens, UniProt P04070). Kind of assay: Xa-1-stage coagulation assay, inhibition of APC anticoagulant activity. The class given is biochemical. The following applies: final peptide concentration 500 μM; NHP; 0 = no observable effect +10%. More on the design: Protein C consists of a 155 amino acid residue light chain and a 262 amino acid residue heavy chain; from tissue; host or cells: human plasma factor IX concentrate. Here is the method: For testing the inhibition of the synthetic peptides on APC activity described above, Xa-1-stage coagulation assays were also performed as described. See Seegers et al., Thrombosis Res., 13:233-243 (1978); Marlar et al., supra; and Walker et al., J. Biol. Chem., 265:1484-1489 (1990). PC heavy chain-derived peptides listed below in Table 6 and PC light chain-derived peptides listed below in Table 7 were prepared as described above and separately admixed for a final concentration of 2 mM with 120 nM APC in 100 μl of TBS-BSA at pH 7.4 to form separate peptide-APC admixtures. The resulting admixtures were maintained for ten minutes at 37° C. Separate aliquots of peptides maintained under the same conditions in the absence of APC served as controls for the inhibitory effect of synthetic peptides on APC anticoagulant activity. After the maintenance period, 100 μl of NHP and 100 μl of 200 μg/ml of rabbit brain cephalin (Sigma) were admixed into each peptide admixture and maintained for 200 seconds at 37° C. to form pre-coagulation admixtures. In some experiments, Factor VIII deficient plasma (George King Bio-Medical, Inc.) was used in the place of NHP to determine the effect of Factor VIII on the assay system. Coagulation was then initiated by the admixture of 100 μl of 0.62 nM human activated Factor X (Xa) (Enzyme Research Laboratories, Southbend, Ind.) in TBS-BSA containing 30 mM CaCl2 prewarmed to 37° C. to each of the pre-coagulation admixtures.
The time for clot formation was measured by an Electra 700 Automatic Coagulation Timer (Medical Laboratory Automation, Inc., Mount Vernon, N.Y.). Each peptide's effect was determined in duplicate. The results of the inhibition of APC anticoagulant activity by synthetic peptides as measured in Xa-1-stage coagulation assays are presented in Tables 6 and 7 below with the APTT assay results and are presented as the mean values obtained with APTT assays. Data for results with PC heavy chain-derived peptides are shown in Table 6 and data for results with PC light chain-derived peptides are shown in Table 7.
The results of inhibition of APC anticoagulant activity by PC light chain-derived peptides in a Xa-1 stage coagulation assay are shown in Table 7. The assay was performed in the presence of NHP. Peptides used in the assay were prepared as described in Example 1 and are listed in Table 7 by their corresponding residue positions in native PC protein (SEQ ID NO 1). For all peptides except PC142-155 used in the Xa-1 stage assays listed in Table 7, cysteine residues in the native PC amino acid residue sequence were substituted by either serine or glycine in the synthesized peptide. This was done to prevent multiple disulfide formation and subsequent potential polymerization among peptides with multiple cysteines. […]
Target sequence in this assay (P04070 43-197 limits assumed): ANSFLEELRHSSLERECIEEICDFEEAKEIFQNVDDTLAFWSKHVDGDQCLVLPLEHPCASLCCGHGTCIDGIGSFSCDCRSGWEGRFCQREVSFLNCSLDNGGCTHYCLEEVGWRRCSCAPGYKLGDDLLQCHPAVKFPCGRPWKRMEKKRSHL
Target sequence in this assay (P04070 212-450 limits assumed): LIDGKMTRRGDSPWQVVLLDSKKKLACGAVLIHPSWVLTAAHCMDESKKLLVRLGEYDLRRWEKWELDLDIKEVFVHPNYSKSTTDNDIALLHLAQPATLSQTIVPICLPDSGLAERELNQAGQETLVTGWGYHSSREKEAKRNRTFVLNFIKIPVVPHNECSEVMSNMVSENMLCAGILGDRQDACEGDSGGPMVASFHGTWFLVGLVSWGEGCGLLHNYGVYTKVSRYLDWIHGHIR

The target of assay [2] is T1, APC. Details: Protein C consists of a 155 amino acid residue light chain and a 262 amino acid residue heavy chain; from tissue; alpha1-AT mutant from Transgene, Strasbourg. Conditions: Heeb et al. 1990; cited from earlier work.
Target sequence in this assay (P04070 43-197): as the sequence (P04070 43-197 limits assumed) above
Target sequence in this assay (P04070 212-461): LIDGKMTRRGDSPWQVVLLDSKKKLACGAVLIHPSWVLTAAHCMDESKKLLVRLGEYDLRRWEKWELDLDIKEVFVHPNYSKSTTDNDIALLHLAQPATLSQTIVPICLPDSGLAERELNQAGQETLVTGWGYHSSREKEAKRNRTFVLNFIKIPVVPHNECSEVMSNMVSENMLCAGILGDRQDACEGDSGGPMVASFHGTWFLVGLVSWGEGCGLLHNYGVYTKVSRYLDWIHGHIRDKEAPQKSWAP

No end group written: not given here.

Consider “HPAVKFPSGRPWKRM-NH2 (C-terminus assumed) [PC134-148]”, for which, at APC [1], 500 µM produced 66% inhibition.

Take “α1 -AT: recombinant mutant (Arg358)-α1-antitrypsin, macromolecular pseudo-substrate inhibitor of APC (Transgene)”: in the assay with APC [2], the “increase in the association rate for APC by substitution of Met358 by Arg” value is “over 4400 fold”.
